Test system: Escherichia coli (ECO) isolates
Test: MIC of compounds alone and combined with antibacterials, broth microdilution (CLSI)
Type: cell-based
In short: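 Log-phase isolates were inoculated at a final 5.10^5 CFU/mL in cation-adjusted Mueller-Hinton broth and incubated 16-20 h at 35° C in ambient air. MIC was the lowest concentration preventing visible growth; for combinations, the antibacterial MIC was read at each compound concentration.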

## C=CC1=C(C(=O)O)N2C(=O)[C@@H](NC(=O)/C(=N\OCC(=O)O)c3csc(N)n3)[C@H]2SC1 [FIX, Cefixime]
ECO 4133, AF2 @ 8 μg/mL
  MIC ATB in combination: <0.25 mg/L
ECO 4133, AF3 @ 8 μg/mL
  MIC ATB in combination: <0.25 mg/L
ECO 4133, CLA @ 4 μg/mL
  MIC ATB in combination: 0.5 mg/L
ECO 5302, AF2 @ 8 μg/mL
  MIC ATB in combination: <0.25 mg/L
ECO 5302, AF3 @ 8 μg/mL
  MIC ATB in combination: <0.25 mg/L
ECO 5302, CLA @ 4 μg/mL
  MIC ATB in combination: 0.5 mg/L
ECO 131119, AF2 @ 8 μg/mL
  MIC ATB in combination: <0.25 mg/L
ECO 131119, AF3 @ 8 μg/mL
  MIC ATB in combination: <0.25 mg/L
ECO 131119, CLA @ 4 μg/mL
  MIC ATB in combination: <=0.25 μg/mL
ECO 180070, AF2 @ 8 μg/mL
  MIC ATB in combination: <0.25 mg/L
ECO 180070, AF3 @ 8 μg/mL
  MIC ATB in combination: <0.25 mg/L
ECO 180070, CLA @ 4 μg/mL
  MIC ATB in combination: 2 mg/L
ECO 190314, AF2 @ 8 μg/mL
  MIC ATB in combination: <0.25 mg/L
ECO 190314, AF3 @ 8 μg/mL
  MIC ATB in combination: <0.25 mg/L
ECO 190314, CLA @ 4 μg/mL
  MIC ATB in combination: 2 mg/L
ECO 190317, AF2 @ 8 μg/mL
  MIC ATB in combination: <0.25 mg/L
ECO 190317, AF3 @ 8 μg/mL
  MIC ATB in combination: <0.25 mg/L
ECO 190317, CLA @ 4 μg/mL
  MIC ATB in combination: 0.5 mg/L
ECO 190457, AF2 @ 8 μg/mL
  MIC ATB in combination: <0.25 mg/L
ECO 190457, AF3 @ 8 μg/mL
  MIC ATB in combination: <0.25 mg/L
ECO 190457, CLA @ 4 μg/mL
  MIC ATB in combination: 0.5 mg/L
ECO 190549, AF2 @ 8 μg/mL
  MIC ATB in combination: <0.25 mg/L
ECO 190549, AF3 @ 8 μg/mL
  MIC ATB in combination: <0.25 mg/L
ECO 190549, CLA @ 4 μg/mL
  MIC ATB in combination: 0.5 mg/L
ECO 200159, AF2 @ 8 μg/mL
  MIC ATB in combination: <0.25 mg/L
ECO 200159, AF3 @ 8 μg/mL
  MIC ATB in combination: <0.25 mg/L
ECO 200159, CLA @ 4 μg/mL
  MIC ATB in combination: <=0.25 μg/mL
ECO 200259, AF2 @ 8 μg/mL
  MIC ATB in combination: <0.25 mg/L
ECO 200259, AF3 @ 8 μg/mL
  MIC ATB in combination: <0.25 mg/L
ECO 200259, CLA @ 4 μg/mL
  MIC ATB in combination: <=0.25 μg/mL
ECO 200344, AF2 @ 8 μg/mL
  MIC ATB in combination: <0.25 mg/L
ECO 200344, AF3 @ 8 μg/mL
  MIC ATB in combination: <=0.25 μg/mL
ECO 200344, CLA @ 4 μg/mL
  MIC ATB in combination: 0.5 mg/L
ECO 260096, AF2 @ 8 μg/mL
  MIC ATB in combination: <=0.25 μg/mL
ECO 260096, AF3 @ 8 μg/mL
  MIC ATB in combination: <=0.25 μg/mL
ECO 260096, CLA @ 4 μg/mL
  MIC ATB in combination: 1 mg/L
ECO 260304, AF2 @ 8 μg/mL
  MIC ATB in combination: <0.25 mg/L
ECO 260304, AF3 @ 8 μg/mL
  MIC ATB in combination: <0.25 mg/L
ECO 260304, CLA @ 4 μg/mL
  MIC ATB in combination: 0.5 mg/L
ECO 260508, AF2 @ 8 μg/mL
  MIC ATB in combination: <0.25 mg/L
ECO 260508, AF3 @ 8 μg/mL
  MIC ATB in combination: <0.25 mg/L
ECO 260508, CLA @ 4 μg/mL
  MIC ATB in combination: 0.5 mg/L
ECO RGN238, AF2 @ 8 μg/mL
  MIC ATB in combination: <0.25 mg/L
ECO RGN238, AF3 @ 8 μg/mL
  MIC ATB in combination: <0.25 mg/L
ECO RGN238, CLA @ 4 μg/mL
  MIC ATB in combination: <=0.25 μg/mL
ECO UFR15, AF2 @ 8 μg/mL
  MIC ATB in combination: <0.25 mg/L
ECO UFR15, AF3 @ 8 μg/mL
  MIC ATB in combination: <0.25 mg/L
ECO UFR15, CLA @ 4 μg/mL
  MIC ATB in combination: 1 mg/L
ECO UFR16, AF2 @ 8 μg/mL
  MIC ATB in combination: <0.25 mg/L
ECO UFR16, AF3 @ 8 μg/mL
  MIC ATB in combination: <0.25 mg/L
ECO UFR16, CLA @ 4 μg/mL
  MIC ATB in combination: 4 mg/L
ECO UFR17, AF2 @ 8 μg/mL
  MIC ATB in combination: >128 mg/L
ECO UFR17, AF3 @ 8 μg/mL
  MIC ATB in combination: >128 mg/L
ECO UFR17, CLA @ 4 μg/mL
  MIC ATB in combination: >128 mg/L
ECO UFR18, AF2 @ 8 μg/mL
  MIC ATB in combination: <0.25 mg/L
ECO UFR18, AF3 @ 8 μg/mL
  MIC ATB in combination: <0.25 mg/L
ECO UFR18, CLA @ 4 μg/mL
  MIC ATB in combination: >128 mg/L
ECO UFR19, AF2 @ 8 μg/mL
  MIC ATB in combination: <0.25 mg/L
ECO UFR19, AF3 @ 8 μg/mL
  MIC ATB in combination: <0.25 mg/L
ECO UFR19, CLA @ 4 μg/mL
  MIC ATB in combination: >128 mg/L
ECO UFR32, AF2 @ 8 μg/mL
  MIC ATB in combination: <0.25 mg/L
ECO UFR32, AF3 @ 8 μg/mL
  MIC ATB in combination: <0.25 mg/L
ECO UFR32, CLA @ 4 μg/mL
  MIC ATB in combination: 1 mg/L
ECO UFR39, AF2 @ 8 μg/mL
  MIC ATB in combination: <0.25 mg/L
ECO UFR39, AF3 @ 8 μg/mL
  MIC ATB in combination: <0.25 mg/L
ECO UFR39, CLA @ 4 μg/mL
  MIC ATB in combination: >128 mg/L
ECO UFR41, AF2 @ 8 μg/mL
  MIC ATB in combination: <0.25 mg/L
ECO UFR41, AF3 @ 8 μg/mL
  MIC ATB in combination: <0.25 mg/L
ECO UFR41, CLA @ 4 μg/mL
  MIC ATB in combination: >128 mg/L
ECO UFR45, AF2 @ 8 μg/mL
  MIC ATB in combination: <0.25 mg/L
ECO UFR45, AF3 @ 8 μg/mL
  MIC ATB in combination: <0.25 mg/L
ECO UFR45, CLA @ 4 μg/mL
  MIC ATB in combination: 32 mg/L
ECO UFR52, AF2 @ 8 μg/mL
  MIC ATB in combination: >128 mg/L
ECO UFR52, AF3 @ 8 μg/mL
  MIC ATB in combination: >128 mg/L
ECO UFR52, CLA @ 4 μg/mL
  MIC ATB in combination: >128 mg/L
ECO UFR61O, AF2 @ 8 μg/mL
  MIC ATB in combination: <=0.25 μg/mL
ECO UFR61O, AF3 @ 8 μg/mL
  MIC ATB in combination: <0.25 mg/L
ECO UFR61O, CLA @ 4 μg/mL
  MIC ATB in combination: 32 mg/L
ECO UFR62, AF2 @ 8 μg/mL
  MIC ATB in combination: <0.25 mg/L
ECO UFR62, AF3 @ 8 μg/mL
  MIC ATB in combination: <0.25 mg/L
ECO UFR62, CLA @ 4 μg/mL
  MIC ATB in combination: 32 mg/L
ECO UFR74, AF2 @ 8 μg/mL
  MIC ATB in combination: <0.25 mg/L
ECO UFR74, AF3 @ 8 μg/mL
  MIC ATB in combination: <0.25 mg/L
ECO UFR74, CLA @ 4 μg/mL
  MIC ATB in combination: >128 mg/L
ECO UFR86, AF2 @ 8 μg/mL
  MIC ATB in combination: 0.5 mg/L
ECO UFR86, AF3 @ 8 μg/mL
  MIC ATB in combination: 0.5 mg/L
ECO UFR86, CLA @ 4 μg/mL
  MIC ATB in combination: 2 mg/L
ECO UFR174, AF2 @ 8 μg/mL
  MIC ATB in combination: <0.25 mg/L
ECO UFR174, AF3 @ 8 μg/mL
  MIC ATB in combination: <0.25 mg/L
ECO UFR174, CLA @ 4 μg/mL
  MIC ATB in combination: 2 mg/L
ECO UFR175, AF2 @ 8 μg/mL
  MIC ATB in combination: <0.25 mg/L
ECO UFR175, AF3 @ 8 μg/mL
  MIC ATB in combination: <=0.25 μg/mL
ECO UFR175, CLA @ 4 μg/mL
  MIC ATB in combination: 16 mg/L
ECO UFR176, AF2 @ 8 μg/mL
  MIC ATB in combination: <0.25 mg/L
ECO UFR176, AF3 @ 8 μg/mL
  MIC ATB in combination: <0.25 mg/L
ECO UFR176, CLA @ 4 μg/mL
  MIC ATB in combination: 32 mg/L
ECO UFR184, AF2 @ 8 μg/mL
  MIC ATB in combination: <0.25 mg/L
ECO UFR184, AF3 @ 8 μg/mL
  MIC ATB in combination: <0.25 mg/L
ECO UFR184, CLA @ 4 μg/mL
  MIC ATB in combination: >128 mg/L
ECO UFR208, AF2 @ 8 μg/mL
  MIC ATB in combination: >128 mg/L
ECO UFR208, AF3 @ 8 μg/mL
  MIC ATB in combination: >128 mg/L
ECO UFR208, CLA @ 4 μg/mL
  MIC ATB in combination: >128 mg/L
ECO UFR209, AF2 @ 8 μg/mL
  MIC ATB in combination: <0.25 mg/L
ECO UFR209, AF3 @ 8 μg/mL
  MIC ATB in combination: <0.25 mg/L
ECO UFR209, CLA @ 4 μg/mL
  MIC ATB in combination: 1 mg/L
ECO UFR210, AF2 @ 8 μg/mL
  MIC ATB in combination: <0.25 mg/L
ECO UFR210, AF3 @ 8 μg/mL
  MIC ATB in combination: <0.25 mg/L
ECO UFR210, CLA @ 4 μg/mL
  MIC ATB in combination: 0.5 mg/L
ECO UFR211, AF2 @ 8 μg/mL
  MIC ATB in combination: <0.25 mg/L
ECO UFR211, AF3 @ 8 μg/mL
  MIC ATB in combination: <0.25 mg/L
ECO UFR211, CLA @ 4 μg/mL
  MIC ATB in combination: 2 mg/L
ECO UFR212, AF2 @ 8 μg/mL
  MIC ATB in combination: <0.25 mg/L
ECO UFR212, AF3 @ 8 μg/mL
  MIC ATB in combination: <0.25 mg/L
ECO UFR212, CLA @ 4 μg/mL
  MIC ATB in combination: >128 mg/L
ECO URF20, AF2 @ 8 μg/mL
  MIC ATB in combination: <=0.25 μg/mL
ECO URF20, AF3 @ 8 μg/mL
  MIC ATB in combination: 2 mg/L
ECO URF20, CLA @ 4 μg/mL
  MIC ATB in combination: >128 mg/L
Strain ECO 4133, genotype TEM-30, OXA-1
  MIC: 0.5 mg/L
Strain ECO 5302, genotype TEM-1, OXA-1
  MIC: 0.5 mg/L
Strain ECO 131119, genotype TEM-1, OXA-48
  MIC: <=0.25 μg/mL
Strain ECO 180070, genotype TEM-1, CTX-M-15
  MIC: 128 mg/L
Strain ECO 190314, genotype CTX-M-1
  MIC: 16 mg/L
